Data: patent US20250304596A1, “PYRAZINE DERIVATIVES AND USES THEREOF” (FOGHORN THERAPEUTICS INC., priority 2022, published 2025)

What was measured:
HiBit-BRM fusion protein = molecular target: T1, HiBit-BRM fusion protein (Homo sapiens, UniProt P51531); test: HiBiT-BRM cell-based degradation assay (Nano-Glo HiBiT Lytic Detection, 24 h); settings: stable HeLa cell line expressing HiBiT-BRM; for DC50: read-out: BRM HiBit Degradation IC50
T1 construct: expressed in transfected cells
Experimental: (§1) Procedure: A stable HeLa cell line expressing HiBiT-BRM was generated. On day 0, 5000 cells were seeded in 40 μL of media into each well of 384-well cell culture plates. On day 1, cells were treated with 120 nL DMSO or 120 nL of 3-fold serially DMSO-diluted compounds (10 points in duplicate with 30 μM as final top dose). Subsequently plates were incubated for 24 h in a standard tissue culture incubator and equilibrated at room temperature for 15 minutes. Nano-Glo HiBiT Lytic Detection System (Promega N3050) reagent was freshly prepared and 20 ul was added to each well. Upon addition of this LgBit-containing reagent, the HiBiT and LgBiT proteins associate to form the luminescent NanoBiT Iuciferase. The plates were shaken for 10 minutes at room temperature and the bioluminescence read using an EnVision plate reader (PerkinElmer).
(§2) The degradation % was calculated using the following formula: % degradation=100%-100%×(LumSample−LumLC)/(LumHC−LumLC). DMSO treated cells are employed as High Control (HC) and 2 μM of a known BRM/BRG1 degrader standard treated cells are employed as Low Control (LC).

[1] = molecular target: T2, HiBit-BRG1 fusion protein (Homo sapiens, UniProt P51532); test: HiBiT-BRG1 cell-based degradation assay (Nano-Glo HiBiT Lytic Detection, 24 h); settings: stable HeLa cell line expressing HiBit-BRG1 and LgBit; for Dmax: read-out: BRG1 HiBit Degradation Maximum (%); for DC50: read-out: BRMG1 HiBit Degradation IC50
T2 construct: expressed in transfected cells
T2 sequence (P51532 whole entry, the tested form may be a part): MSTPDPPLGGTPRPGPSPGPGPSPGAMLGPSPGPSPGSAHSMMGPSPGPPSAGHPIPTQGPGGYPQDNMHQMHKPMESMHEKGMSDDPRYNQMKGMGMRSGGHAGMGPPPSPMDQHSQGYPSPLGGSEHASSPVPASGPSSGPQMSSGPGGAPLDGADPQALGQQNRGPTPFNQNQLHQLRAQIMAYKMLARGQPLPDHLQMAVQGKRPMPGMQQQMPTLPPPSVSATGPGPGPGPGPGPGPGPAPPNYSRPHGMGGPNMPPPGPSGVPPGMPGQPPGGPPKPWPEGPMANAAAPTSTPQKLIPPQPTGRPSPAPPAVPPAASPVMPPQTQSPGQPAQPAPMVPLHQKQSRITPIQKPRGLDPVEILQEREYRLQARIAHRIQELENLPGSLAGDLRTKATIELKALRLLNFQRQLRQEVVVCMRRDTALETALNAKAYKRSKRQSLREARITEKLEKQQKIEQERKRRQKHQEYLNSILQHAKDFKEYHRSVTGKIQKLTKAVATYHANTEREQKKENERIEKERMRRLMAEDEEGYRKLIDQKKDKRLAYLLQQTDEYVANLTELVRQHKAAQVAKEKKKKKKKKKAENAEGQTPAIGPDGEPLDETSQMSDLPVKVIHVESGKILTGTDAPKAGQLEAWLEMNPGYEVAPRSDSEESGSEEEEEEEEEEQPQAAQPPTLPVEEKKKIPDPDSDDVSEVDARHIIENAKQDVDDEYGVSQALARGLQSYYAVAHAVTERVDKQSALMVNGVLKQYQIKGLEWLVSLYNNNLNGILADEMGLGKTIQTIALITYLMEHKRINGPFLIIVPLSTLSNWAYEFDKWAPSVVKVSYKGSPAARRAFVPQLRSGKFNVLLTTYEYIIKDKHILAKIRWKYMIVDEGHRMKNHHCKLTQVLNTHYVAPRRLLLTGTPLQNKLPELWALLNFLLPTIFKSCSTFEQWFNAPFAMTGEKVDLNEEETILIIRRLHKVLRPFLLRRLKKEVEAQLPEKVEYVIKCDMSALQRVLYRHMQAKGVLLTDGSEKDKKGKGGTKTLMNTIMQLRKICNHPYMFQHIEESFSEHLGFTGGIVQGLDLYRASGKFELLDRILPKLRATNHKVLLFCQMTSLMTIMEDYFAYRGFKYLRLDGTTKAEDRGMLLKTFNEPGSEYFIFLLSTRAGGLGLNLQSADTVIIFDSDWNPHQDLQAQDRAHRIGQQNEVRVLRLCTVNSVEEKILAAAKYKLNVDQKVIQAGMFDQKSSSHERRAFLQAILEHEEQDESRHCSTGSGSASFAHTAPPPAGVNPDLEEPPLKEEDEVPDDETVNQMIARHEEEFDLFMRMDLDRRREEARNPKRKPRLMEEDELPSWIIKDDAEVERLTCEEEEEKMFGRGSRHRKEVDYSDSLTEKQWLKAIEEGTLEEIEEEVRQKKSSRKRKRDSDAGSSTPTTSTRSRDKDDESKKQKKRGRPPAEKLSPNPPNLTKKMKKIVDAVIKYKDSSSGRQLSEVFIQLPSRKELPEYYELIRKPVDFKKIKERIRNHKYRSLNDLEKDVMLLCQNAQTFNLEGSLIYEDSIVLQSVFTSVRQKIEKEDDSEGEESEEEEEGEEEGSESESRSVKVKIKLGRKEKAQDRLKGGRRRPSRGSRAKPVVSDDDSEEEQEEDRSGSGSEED
Experimental: as §1
For measurement of BRG1 degradation, a stable HeLa cell line expressing HiBit-BRG1 and LgBit was generated. The same protocol as above was then followed.
as §2

T1 sequence (P51531 whole entry, the tested form may be a part): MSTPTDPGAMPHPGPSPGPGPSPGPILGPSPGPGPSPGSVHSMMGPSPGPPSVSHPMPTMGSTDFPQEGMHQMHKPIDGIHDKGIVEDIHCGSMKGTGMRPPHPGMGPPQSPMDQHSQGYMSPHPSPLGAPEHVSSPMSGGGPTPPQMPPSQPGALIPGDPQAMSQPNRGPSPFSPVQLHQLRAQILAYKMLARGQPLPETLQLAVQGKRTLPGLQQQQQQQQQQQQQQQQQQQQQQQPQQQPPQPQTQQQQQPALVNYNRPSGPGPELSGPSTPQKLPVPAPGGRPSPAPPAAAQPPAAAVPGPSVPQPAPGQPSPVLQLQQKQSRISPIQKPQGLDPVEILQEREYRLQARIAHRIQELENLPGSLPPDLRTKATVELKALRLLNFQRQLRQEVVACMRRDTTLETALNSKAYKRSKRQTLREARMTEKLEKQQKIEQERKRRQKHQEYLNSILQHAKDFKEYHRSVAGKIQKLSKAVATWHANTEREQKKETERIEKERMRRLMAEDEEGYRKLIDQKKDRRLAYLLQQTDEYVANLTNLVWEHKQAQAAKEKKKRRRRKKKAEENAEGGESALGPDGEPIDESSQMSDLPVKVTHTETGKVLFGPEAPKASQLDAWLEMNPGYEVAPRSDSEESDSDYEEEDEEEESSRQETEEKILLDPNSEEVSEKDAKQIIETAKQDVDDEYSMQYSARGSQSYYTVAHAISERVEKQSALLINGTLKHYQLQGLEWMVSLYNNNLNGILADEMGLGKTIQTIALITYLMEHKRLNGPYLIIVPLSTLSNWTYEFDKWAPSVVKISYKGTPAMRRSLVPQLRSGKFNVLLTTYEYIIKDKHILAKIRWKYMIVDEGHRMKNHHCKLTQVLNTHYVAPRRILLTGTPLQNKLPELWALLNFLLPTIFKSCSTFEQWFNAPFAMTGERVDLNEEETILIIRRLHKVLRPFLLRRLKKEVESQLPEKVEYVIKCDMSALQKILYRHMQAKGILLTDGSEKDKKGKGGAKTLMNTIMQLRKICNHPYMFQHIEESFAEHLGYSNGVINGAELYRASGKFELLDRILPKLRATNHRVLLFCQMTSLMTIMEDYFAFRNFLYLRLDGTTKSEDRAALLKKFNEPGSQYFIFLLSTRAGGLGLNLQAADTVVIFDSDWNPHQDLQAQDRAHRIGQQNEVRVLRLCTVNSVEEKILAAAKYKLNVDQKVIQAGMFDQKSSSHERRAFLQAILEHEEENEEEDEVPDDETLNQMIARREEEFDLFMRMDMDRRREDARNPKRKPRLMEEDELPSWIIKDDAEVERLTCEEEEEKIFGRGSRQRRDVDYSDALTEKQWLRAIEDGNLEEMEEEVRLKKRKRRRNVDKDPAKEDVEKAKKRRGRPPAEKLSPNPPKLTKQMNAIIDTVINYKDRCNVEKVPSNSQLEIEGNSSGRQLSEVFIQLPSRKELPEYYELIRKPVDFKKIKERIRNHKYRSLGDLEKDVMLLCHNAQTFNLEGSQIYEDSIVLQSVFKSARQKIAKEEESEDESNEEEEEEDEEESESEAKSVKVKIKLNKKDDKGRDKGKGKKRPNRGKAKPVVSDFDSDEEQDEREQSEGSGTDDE

SMILES | DC50 (HiBit-BRM fusion protein) | Dmax [1] | DC50 [1] | BRM HiBit Degradation Maximum (%) (HiBit-BRM fusion protein)
Cc1ncsc1-c1ccc([C@H](C)NC(=O)[C@@H]2C[C@@H](O)CN2C(=O)[C@@H](c2cc(N3CC(c4sc5nnc(-c6ccccc6O)cc5c4C)C3)no2)C(C)C)cc1 [Compound 19, (2S,4R)-4-hydroxy-1-((R)-2-(3-(3-(3-(2-hydroxyphenyl)-5-methylthieno[2,3-c]pyridazin-6-yl)azetidin-1-yl)isoxazol-5-yl)-3-methylbutanoyl)-N-((S)-1-(4-(4-methylthiazol-5-yl)phenyl)ethyl)pyrrolidine-2-carboxamide] | > 1000 nM | < 50% | > 1000 nM | 2%
Cc1ncsc1-c1ccc([C@H](C)NC(=O)[C@@H]2C[C@@H](O)CN2C(=O)[C@@H](c2cc(N3CCC(c4sc5nnc(-c6ccccc6O)cc5c4C)CC3)no2)C(C)C)cc1 [Compound 56, (2S,4R)-4-hydroxy-1-((R)-2-(3-(4-(3-(2-hydroxyphenyl)-5-methylthieno[2,3-c]pyridazin-6-yl)piperidin-1-yl)isoxazol-5-yl)-3-methylbutanoyl)-N-((S)-1-(4-(4-methylthiazol-5-yl)phenyl)ethyl)pyrrolidine-2-carboxamide] | > 10 nM | < 50% | > 1000 nM | B (“B” indicates maximum degradation ≥50%)
Cc1cc(-c2cc([C@H](C(=O)N3C[C@H](O)C[C@H]3C(=O)N[C@@H](C)c3ccc(-c4scnc4C)cc3)C(C)C)on2)cnc1N1CCC(c2cc3cc(-c4ccccc4O)nnc3s2)CC1 (single isomer, unassigned) [Compound 2] | > 10 nM | < 50% | > 1000 nM | A (“A” indicates maximum degradation ≥75%)
Cc1ncsc1-c1ccc([C@H](C)NC(=O)[C@@H]2C[C@@H](O)CN2C(=O)[C@@H](c2cc(-c3cnc(N4CCC(c5sc6nnc(-c7ccccc7O)cc6c5C5CC5)CC4)nc3)no2)C(C)C)cc1 [Compound 84, (2S,4R)-1-((R)-2-(3-(2-(4-(5-cyclopropyl-3-(2-hydroxyphenyl)thieno[2,3-c]pyridazin-6-yl)piperidin-1-yl)pyrimidin-5-yl)isoxazol-5-yl)-3-methylbutanoyl)-4-hydroxy-N-((S)-1-(4-(4-methylthiazol-5-yl)phenyl)ethyl)pyrrolidine-2-carboxamide] | > 10 nM | < 50% | – | B (“B” indicates maximum degradation ≥50%)
Cc1ncsc1-c1ccc([C@H](C)NC(=O)[C@@H]2C[C@@H](O)CN2C(=O)[C@@H](c2cc(Oc3ccnc(N4CCC(c5sc6nnc(-c7ccccc7O)cc6c5C)CC4)n3)no2)C(C)C)cc1 (single isomer, unassigned) [Compound 62] | > 1000 nM | < 50% | > 1000 nM | C (“C” indicates maximum degradation <50%)
Cc1ncsc1-c1ccc([C@H](C)NC(=O)[C@@H]2C[C@@H](O)CN2C(=O)[C@@H](c2cc(-c3cnc(N4CCC(c5sc6nnc(-c7cccc(Cl)c7O)cc6c5C)CC4)nc3)no2)C(C)C)cc1 [Compound 29, (2S,4R)-1-((R)-2-(3-(2-(4-(3-(3-chloro-2-hydroxyphenyl)-5-methylthieno[2,3-c]pyridazin-6-yl)piperidin-1-yl)pyrimidin-5-yl)isoxazol-5-yl)-3-methylbutanoyl)-4-hydroxy-N-((S)-1-(4-(4-methylthiazol-5-yl)phenyl)ethyl)pyrrolidine-2-carboxamide] | > 1000 nM | < 50% | > 1000 nM | C (“C” indicates maximum degradation <50%)

Further lines, with some results ahead:

DC50 (HiBit-BRM fusion protein) | Dmax [1] | DC50 [1] | SMILES | BRM HiBit Degradation Maximum (%) (HiBit-BRM fusion protein)
> 10 nM | < 50% | > 1000 nM | Cc1ncsc1-c1ccc([C@H](C)NC(=O)[C@@H]2C[C@@H](O)CN2C(=O)[C@@H](c2cc(-c3ccc(N4CC(c5sc6nnc(-c7ccccc7O)cc6c5C)C4)nc3)no2)C(C)C)cc1 [Compound 49, (2S,4R)-4-hydroxy-1-((R)-2-(3-(6-(3-(3-(2-hydroxyphenyl)-5-methylthieno[2,3-c]pyridazin-6-yl)azetidin-1-yl)pyridin-3-yl)isoxazol-5-yl)-3-methylbutanoyl)-N-((S)-1-(4-(4-methylthiazol-5-yl)phenyl)ethyl)pyrrolidine-2-carboxamide] | B (“B” indicates maximum degradation ≥50%)
< 10 nM | > 50% | – | Cc1nc(N2CCC(c3sc4nnc(-c5ccccc5O)cc4c3C)CC2)ncc1-c1cc([C@H](C(=O)N2C[C@H](O)C[C@H]2C(=O)N[C@@H](C)c2ccc(-c3scnc3C)cc2)C(C)C)on1 [Compound 93, (2S,4R)-4-hydroxy-1-((R)-2-(3-(2-(4-(3-(2-hydroxyphenyl)-5-methylthieno[2,3-c]pyridazin-6-yl)piperidin-1-yl)-4-methylpyrimidin-5-yl)isoxazol-5-yl)-3-methylbutanoyl)-N-((S)-1-(4-(4-methylthiazol-5-yl)phenyl)ethyl)pyrrolidine-2-carboxamide] | A (“A” indicates maximum degradation ≥75%)
> 10 nM | < 50% | – | Cc1ncsc1-c1ccc([C@H](C)NC(=O)[C@@H]2C[C@@H](O)CN2C(=O)[C@@H](c2cc(N3CCC4(CC[C@H](c5sc6nnc(-c7ccccc7O)cc6c5C)C4)CC3)no2)C(C)C)cc1 [Compound 81, (2S,4R)-4-hydroxy-1-((R)-2-(3-((S)-2-(3-(2-hydroxyphenyl)-5-methylthieno[2,3-c]pyridazin-6-yl)-8-azaspiro[4.5]decan-8-yl)isoxazol-5-yl)-3-methylbutanoyl)-N-((S)-1-(4-(4-methylthiazol-5-yl)phenyl)ethyl)pyrrolidine-2-carboxamide] | A (“A” indicates maximum degradation ≥75%)
< 10 nM | < 50% | > 1000 nM | Cc1ncsc1-c1ccc([C@H](C)NC(=O)[C@@H]2C[C@@H](O)CN2C(=O)[C@@H](c2cc(-c3cnc(N4CCC(c5cc6nnc(-c7ccccc7O)cc6s5)CC4)nc3)no2)C(C)C)cc1 [Compound 55, (2S,4R)-4-hydroxy-1-((R)-2-(3-(2-(4-(3-(2-hydroxyphenyl)thieno[3,2-c]pyridazin-6-yl)piperidin-1-yl)pyrimidin-5-yl)isoxazol-5-yl)-3-methylbutanoyl)-N-((S)-1-(4-(4-methylthiazol-5-yl)phenyl)ethyl)pyrrolidine-2-carboxamide] | A (“A” indicates maximum degradation ≥75%)
< 10 nM | > 50% | > 10 nM | Cc1ncsc1-c1ccc([C@H](C)NC(=O)[C@@H]2C[C@@H](O)CN2C(=O)[C@@H](c2cc(N3CC[C@H](c4sc5nnc(-c6ccccc6O)cc5c4C)C3)no2)C(C)C)cc1 [Compound 78, (2S,4R)-4-hydroxy-1-((R)-2-(3-((S)-3-(3-(2-hydroxyphenyl)-5-methylthieno[2,3-c]pyridazin-6-yl)pyrrolidin-1-yl)isoxazol-5-yl)-3-methylbutanoyl)-N-((S)-1-(4-(4-methylthiazol-5-yl)phenyl)ethyl)pyrrolidine-2-carboxamide] | A (“A” indicates maximum degradation ≥75%)
< 10 nM | < 50% | > 1000 nM | Cc1ncsc1-c1ccc([C@H](C)NC(=O)[C@@H]2C[C@@H](O)CN2C(=O)[C@@H](c2cc(-c3cnc(N4CCC(c5cc6cc(-c7ccccc7O)nnc6s5)CC4)nc3)no2)C(C)C)cc1 [Compound 54, (2S,4R)-4-hydroxy-1-((R)-2-(3-(2-(4-(3-(2-hydroxyphenyl)thieno[2,3-c]pyridazin-6-yl)piperidin-1-yl)pyrimidin-5-yl)isoxazol-5-yl)-3-methylbutanoyl)-N-((S)-1-(4-(4-methylthiazol-5-yl)phenyl)ethyl)pyrrolidine-2-carboxamide] | A (“A” indicates maximum degradation ≥75%)
< 10 nM | > 75% | < 10 nM | Cc1ncsc1-c1ccc([C@H](C)NC(=O)[C@@H]2C[C@@H](O)CN2C(=O)[C@@H](c2cc(N3CC4(CC(c5cc6nnc(-c7ccccc7O)cc6s5)C4)C3)no2)C(C)C)cc1 [Compound 69, (2S,4R)-4-hydroxy-1-((R)-2-(3-(6-(3-(2-hydroxyphenyl)thieno[3,2-c]pyridazin-6-yl)-2-azaspiro[3.3]heptan-2-yl)isoxazol-5-yl)-3-methylbutanoyl)-N-((S)-1-(4-(4-methylthiazol-5-yl)phenyl)ethyl)pyrrolidine-2-carboxamide] | A (“A” indicates maximum degradation ≥75%)
< 10 nM | < 50% | > 1000 nM | Cc1ncsc1-c1ccc([C@H](C)NC(=O)[C@@H]2C[C@@H](O)CN2C(=O)[C@@H](c2cc(-c3cnc(N4CC(c5sc6nnc(-c7ccccc7O)cc6c5C)C4)nc3)no2)C(C)C)cc1 (single isomer, unassigned) [Compound 63] | A (“A” indicates maximum degradation ≥75%)
